# Literature values in patent US20060243184A1, “Use of waste nitrogen from air separation units for blanketing cargo and ballast tanks” (Chevron U.S.A. Inc., priority 2003, published 2006).
# Conditions: @ 20° C.
row,Structure (SMILES),Water Solubility
1,CS [Methylmercaptan],2.4%
2,CCCS [Propylmercaptan],Low
3,CCS [Ethylmercaptan],1.3%
